Test results reported in patent US11612605B2, “(+)-azasetron for use in the treatment of ear disorders” (SENSORION, priority 2016, dated 2023).

System: SSNHL after acoustic trauma
Assay: SSNHL model: acoustic trauma (120 dB octave band noise), ABR and DPOAE audiometry
Assay type: in vivo, male Wistar rats
Method: All experiments were performed using 7-week-old male Wistar rats (CERJ, Le Genest, France) in accordance with the French Ministry of Agriculture regulations and European Community Council Directive no. 86/609/EEC, OJL 358. The rats were fed a standard diet ad libitum and maintained on a 12 hours' light-dark cycle.
Auditory Brainstem Reponses (ABR) and Distortion Product Otoacoustic Emissions (DPOAE) were recording using a RZ6 Auditory Workstation (Tucker-Davis Technologies, Alachua, Fla., USA) with animals deeply anesthetized using 90 mg/kg ketamine and 10 mg/kg xylazine and placed on a 35° C. recirculating heating pad inside a sound attenuating cubicle (Med Associates Inc., St. Albans, Vt., USA) throughout the experiment.
For ABR recordings, three stainless steel needle electrodes were placed subdermally over the vertex, the right mastoid and right hind leg of each animal. Tone-pips (5 msec duration presented at a rate of 21/s) at 8, 16 and 24 kHz were delivered to the right ear using a calibrated MF-1 speaker in closed-field configuration (Tucker-Davis Technologies, Alachua, Fla., USA) at attenuating intensity until no reproducible response could be recorded. Close to the ABR threshold, the responses to 1000 acoustic stimuli in 5 dB steps were averaged. Responses were low-pass filtered at 3 kHz.
DPOAEs were recorded and using ER10B+ Low Noise DPOAE microphone (Etymotic Research, Inc., Elk Grove Village, Ill., USA) with acoustic stimuli delivered by two calibrated MF-1 speakers in closed-field configuration (Tucker-Davis Technologies, Alachua, Fla., USA). DPOAEs were recorded at fixed stimulus levels (L1=L2=70 dB SPL), with an f2/f1 ratio of 1.2. Responses were recorded at 4, 8, 16, 24 and 32 kHz.
Animals were exposed to 120 dB octave band noise (8-16 kHz) for 2 hours in groups of 4 rats, placed in individual compartments of a custom built circular cage placed on a 30-cm diameter platform rotating at 3 turns/minute (Aqila Innovation, Valbonne, France). The calibrated octave band noise generated by the RZ6 SigGen software was further amplified by a Crown D-75 amplifier in bridge mode (Crown Audio, Elkhart, Ind., USA) and delivered by four Beyma CPI6 compression tweeters (Acustica Beyma S. L., Moncada, Valencia, Spain) positioned 39 cm above the rotating platform, each 10 cm from the platform center.
The ability of the racemic and two enantiomers of azasetron hydrochloride to reduce SSNHL after acoustic trauma was evaluated in a randomized, vehicle-controlled study with 7 weeks old male Wistar rats. Rats were randomized to receive 4.22 mg/kg of the racemic, two enantiomers of azasetron or vehicle control (physiological saline) by intraperitoneal injection immediately after acoustic trauma, followed by daily dosing for a total of 14 days. Two days prior to acoustic trauma, baseline audiometric readings using auditory brainstem response (ABR) (8, 16, and 24 kHz) were recorded for each animal. Animals were exposed to 120-dB octave-band noise (8-16 kHz) for 2 hours to induce acoustic trauma.
The ability of the (+)-enantiomer of azasetron hydrochloride to reduce SSNHL after acoustic trauma was evaluated in a randomized, vehicle-controlled study in male Wistar rats, 7 weeks of age. Rats were randomized to receive 5, 10, or 20 mg/kg of the (+)-enantiomer of azasetron hydrochloride or vehicle control (physiological saline) by oral gavage immediately after acoustic trauma, followed by daily dosing for a total of 14 days. Two days prior to acoustic trauma, baseline audiometric readings using auditory brainstem response (ABR) (8, 16, and 24 kHz) and distortion-product otoacoustic emissions (DPOAE) (4, 8, 16, 24, and 32 kHz) were recorded for each animal. Post-trauma audiometry recordings were conducted at 14 days.
The ability of the racemic azasetron hydrochloride by oral administration to reduce SSNHL after acoustic trauma was also evaluated. […]

[1] = 10 mg/kg oral gavage daily 14 days after acoustic trauma
[2] = 10 mg/kg oral gavage daily 14 days, baseline to day 14
[3] = 20 mg/kg oral gavage daily 14 days, baseline to day 14

SMILES	protective effect on ABR thresholds [1]	protective effect on DPOAE amplitude loss [1]	ABR threshold shifts compared with racemic azasetron, (−)-enantiomer and vehicle (4.22 mg/kg intraperitoneal, daily for 14 days after acoustic trauma, 8, 16, 24 kHz)	mean improvement in hearing (ABR) [2]	mean reduction of ABR threshold shifts [2]	mean improvement in hearing (ABR) [3]	mean reduction of ABR threshold shifts [3]	mean reduction of DPOAE amplitude loss [3]	reduction of hearing loss (average) by ASLHA criteria versus vehicle control (10- and 20-mg/kg oral doses)
CN1C(=O)COc2c(C(=O)NC3CN4CCC3CC4)cc(Cl)cc21 (racemic) [Racemic azasetron, N-(1-azabicyclo[2.2.2]octan-8-yl)-6-chloro-4-methyl-3-oxo-1,4-benzoxazine-8-carboxamide]	small tendency towards a protective effect	small tendency towards a protective effect	–	–	–	–	–	–	–
CN1C(=O)COc2c(C(=O)N[C@H]3CN4CCC3CC4)cc(Cl)cc21 [(+)-azasetron]	–	–	reduced ABR threshold shifts more than racemic azasetron or (−)-enantiomer	22.3 dB	35.1%	19.4 dB	30.5%	51.2%	from moderately severe (56 to 70 dB) to mild/moderate (26 to 40 dB/41 to 55 dB)
